Biological target: T1, βarr1 (Homo sapiens, UniProt P49407, C125S/C140L/C150V/C242V/C251V/C269S/C59V/D390C)
T1 construct: we started from a full-length functional cysteine-less βarr1 construct[20]; 6xHis-tag with SSG linker and thrombin cleavage site (N, cleaved yes); made in house; host or cells: E. coli BL21(DE3)
Experiment: 1D 19F NMR of site-specifically 19F (wPSP-6F)-labeled βarr1
Assay type: biochemical
Settings: for Linewidth: 298 K, pH 8.0
Text: The cysteine-less mutant (C59V/C125S/C140L/C150V/C242V/C251V/C269S) of the long splice variant of human βarr1 was used for introduction of single site cysteine mutation for ^19F labeling. The sequence was codon-optimized for expression in Escherichia coli and cloned into a pET-28a(+) vector (Novagen), with an N-terminal 6xHis-tag, followed by an SSG linker and a thrombin cleavage site. All mutants, including the 1–382 (βarr1-ΔCT) and 1–395 truncation constructs, were generated using site-directed mutagenesis kits (Thermo Fisher). Primer sequences for generating the mutants are listed in Supplementary Table 4.
Each single-cysteine mutant of βarr1 was diluted to a concentration of 50 μM to be labeled using the sulfoxide-based ^19F probe wPSP-6F[21],[44]. The wPSP-6F stock dissolved in buffer E was added into the protein sample at 1.5-fold molar ratio excess and incubated at 4 °C for 1 h, followed by quenching with twofold molar ratio of dithiothreitol. The sample was then fully exchanged using buffer E to remove excess of small molecules, and subjected to a second round of SEC purification. The purified proteins were concentrated to 100 μM, flash-frozen in liquid nitrogen and stored at −80 °C until use. The purities of all samples were verified by SDS-PAGE.
The ^19F-labeled βarr1 was diluted to 50 μM using buffer E before incubation with peptides or PIP2. The V2Rpp, β2AR-GRK2pp/GRK6pp or PIP2 were added at 1.2-fold, 3-fold, and 1.5-fold molar ratio excess to the protein, respectively. For the membrane-bound sample, the reconstituted nanodiscs were added at twofold molar ratio of βarr1. All complexes were incubated at 25 °C for 1 h, and the freshly prepared samples were immediately subjected to ^19F NMR experiments.
NMR samples were prepared in buffer E to a final volume of 140 μL, supplemented with 1 mM DTT, 10% D2O for field lock, and 1 μM sodium trifluoroacetate (STFA) as the internal chemical shift reference. All samples were sterile-filtered and loaded into sterile 3 mm NMR microtubes to prevent microbial contamination. Final protein concentrations vary for different constructs, depending on their expression levels and stabilities, but all in the range of 20–50 μM.
All ^19F NMR spectra were recorded at 298 K using a Bruker AVANCE III HD 800 MHz spectrometer equipped with a ^1H-^19F/^13C/^15N TCI triple resonance cryogenic probe. All data were acquired and processed using the Bruker Topspin 4.2.0 software. For all 1D ^19F NMR experiments, the traditional one-pulse sequence was used. The carrier frequency was set to −68.0 ppm and the spectra were recorded with 4k points and a spectral width of 15,000 Hz. Because accurate calibration of the 90° excitation pulse length for individual samples is not practical due to the low protein concentrations, we used the 90° pulse length calibrated from a standard sample (0.05% Trifluoro-toluene in CDCl3) for all βarr1 samples. […] Therefore, all the ^19F experiments were conducted with a 100 ms relaxation delay, and acquired using 100,000–200,000 scans depending on the sample condition, yielding a signal-to-noise (S/N) ratio of approximately 50. SDS-PAGE were run for all samples before and after NMR experiments to ensure that no protein degradation occurs during the experiments.
All NMR data were analyzed using the MestraNova 12.0.0 software (https://mnova.pl). The spectra were baseline-corrected by the Whittaker Smoother method and applied with a 30 Hz exponential windows function. The ^19F chemical shifts were referenced to STFA at −75.450 ppm. All datasets were processed using the same variables to facilitate comparison. Spectral deconvolutions were performed assuming generalized Lorentzian line shapes. To distinguish overlapping resonances, a LB value of 3 Hz was initially applied to ensure the highest resolution and determine the exact chemical shift values. The spectra were subsequently fitted iteratively using an LB value of 30 Hz. […]

T1 sequence (P49407 whole entry C59V/C125S/C140L/C150V/C242V/C251V/C269S/D390C): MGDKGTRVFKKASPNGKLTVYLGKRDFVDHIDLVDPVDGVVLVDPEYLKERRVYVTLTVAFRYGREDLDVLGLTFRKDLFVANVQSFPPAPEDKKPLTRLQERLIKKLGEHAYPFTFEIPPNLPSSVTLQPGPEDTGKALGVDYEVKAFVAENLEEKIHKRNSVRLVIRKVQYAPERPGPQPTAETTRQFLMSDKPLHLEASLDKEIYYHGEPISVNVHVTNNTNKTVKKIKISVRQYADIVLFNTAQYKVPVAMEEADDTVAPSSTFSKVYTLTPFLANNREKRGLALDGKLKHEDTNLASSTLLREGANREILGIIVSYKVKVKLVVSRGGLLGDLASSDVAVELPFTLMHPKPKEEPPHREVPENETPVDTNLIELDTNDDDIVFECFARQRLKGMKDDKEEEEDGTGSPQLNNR

## CCCCCCCC(=O)OC[C@H](COP(=O)(O)O[C@@H]1[C@H](O)[C@H](O)[C@@H](OP(=O)(O)O)[C@H](OP(=O)(O)O)[C@H]1O)OC(=O)CCCCCCC [PIP2, diC8-PI(4,5)P2]
1T36 site, ligand-bound state (V2Rpp 1.2-fold, PIP2 1.5-fold), basal 107
  Linewidth: 102 Hz
C242 site
  Linewidth increase upon PIP2 binding: ~ 50%
C242 site, PIP2 1.5-fold, basal 80
  Linewidth: 120 Hz
C269 site, PIP2 1.5-fold, basal 58
  Linewidth: 56 Hz
D240C site
  Linewidth increase upon PIP2 binding: ~75%
D240 site, PIP2 1.5-fold, basal 75
  Linewidth: 133 Hz
D390C site, released conformation, V2Rpp 1.2-fold or PIP2 1.5-fold
  Linewidth of the S2 resonance: > 200 Hz
D390C site, V2Rpp 1.2-fold, PIP2 1.5-fold
  CT displacement/release: very slight increase of the active S2 peak at the D390C site
D390 site, ligand-bound state (V2Rpp 1.2-fold, PIP2 1.5-fold), basal 87
  Linewidth: 92 Hz
E206C site
  Linewidth increase upon PIP2 binding: < 10%
E206C site, PIP2 alone
  Spectral change at E206C: no obvious changes at this site
E206 site, ligand-bound state (V2Rpp 1.2-fold, PIP2 1.5-fold), basal 120
  Linewidth: 129 Hz
E283C site
  Linewidth increase upon PIP2 binding: < 10%
E283 site, PIP2 1.5-fold, basal 99
  Linewidth: 106 Hz
E313C site
  Linewidth increase upon PIP2 binding: ~ 50%
E313 site, ligand-bound state (V2Rpp 1.2-fold, PIP2 1.5-fold), basal 88
  Linewidth: 136 Hz
E404 site, ligand-bound state (V2Rpp 1.2-fold, PIP2 1.5-fold), basal 51
  Linewidth: 57 Hz
F244 site, ligand-bound state (V2Rpp 1.2-fold, PIP2 1.5-fold), basal 123
  Linewidth: 200 Hz
F277C site
  Linewidth increase upon PIP2 binding: < 10%
F277 site, PIP2 1.5-fold, basal 68
  Linewidth: 68 Hz
H198 site, PIP2 1.5-fold, basal 107
  Linewidth: 115 Hz
H295C site, PIP2 alone, 1.5-fold
  S2 population: ~ 68%
H295C site, PIP2 co-added with GRK2/6-phosphorylated β2AR peptides
  S2 population: ~ 55%
H295C site, V2Rpp 1.2-fold, β2AR peptides 3-fold, PIP2 1.5-fold, nanodiscs twofold
  Gate loop conformational change (S2 state): dramatic, albeit incomplete transition to the S2 state
H295 site, ligand-bound state (V2Rpp 1.2-fold, PIP2 1.5-fold), basal 230
  Linewidth: 362 Hz
L68 site, ligand-bound state (V2Rpp 1.2-fold, PIP2 1.5-fold), basal 89
  Linewidth: 101 Hz
L71 site, ligand-bound state (V2Rpp 1.2-fold, PIP2 1.5-fold), basal 62
  Linewidth: 73 Hz
L100 site, ligand-bound state (V2Rpp 1.2-fold, PIP2 1.5-fold), basal 247
  Linewidth: 242 Hz
L191 site, PIP2 1.5-fold, basal 58
  Linewidth: 75 Hz
L293 site, ligand-bound state (V2Rpp 1.2-fold, PIP2 1.5-fold), basal 113
  Linewidth: 141 Hz
L334 site, ligand-bound state (V2Rpp 1.2-fold, PIP2 1.5-fold), basal 50
  Linewidth: 87 Hz
N375 site, ligand-bound state (V2Rpp 1.2-fold, PIP2 1.5-fold), basal 46
  Linewidth: 48 Hz
T6 site, ligand-bound state (V2Rpp 1.2-fold, PIP2 1.5-fold), basal 71
  Linewidth: 70 Hz
T183 site, ligand-bound state (V2Rpp 1.2-fold, PIP2 1.5-fold), basal 67
  Linewidth: 89 Hz
Y63C site, PIP2 1.5-fold
  New peak: appearance of a new peak S3
Y63C, L68C, L71C, T136C, F244C, V2Rpp 1.2-fold, β2AR peptides 3-fold, PIP2 1.5-fold
  Spectral changes in the central crest: apparently perturbs Y63C and F244C while having little effect on the other sites
Y63 site, ligand-bound state (V2Rpp 1.2-fold, PIP2 1.5-fold), basal 118
  Linewidth: 206 Hz

From paper PMC10686989, “Distinct activation mechanisms of β-arrestin-1 revealed by ^19F NMR spectroscopy” (Nature Communications, 2023)
